Laboratory results published in article PMC6381024, “Probing Anti-inflammatory Properties Independent of NF-κB Through Conformational Constraint of Peptide-Based Interleukin-1 Receptor Biased Ligands” (Frontiers in Chemistry, 2019).

Key:
COX2 = assay: qPCR of IL-1β-induced COX-2 (PTGHS2) expression in HEK-Blue IL-33/IL-1β cells; assay type: cell-based, human; set-up: key to qPCR COX2 (heatmap grade of inhibition): 0: No effect; No effect 01234 Maximum inhibition/efficacy; No effect 01234 Maximum inhibition/efficacy; No effect 01234 Maximum inhibition/efficacy; 4: Maximum inhibition/efficacy; conditions: for qPCR COX2 (heatmap grade of inhibition): HEK-Blue cells, peptide 10^-6 M or Kineret 1.0 mg/mL 30 min, then IL-1β 100 ng/mL 4 h (legend: overnight); for Suppression of COX2 transcription: HEK blue cells, 10^-6 M pre-treatment, IL-1β stimulation
Protocol: HEK-Blue IL-33/IL-1β cells were purchased from InvivoGen (San Diego, CA) and used at passages under 15. HEK-Blue cells were cultured in DMEM growth medium supplemented with 10% serum, 50 U/mL penicillin, […] streptomycin, […] zeocin, and […] hygromycin. Cells were grown in regular conditions (37°C, 5% CO2). Cells were serum starved overnight and treated with 100 ng/mL IL-1β for 4 h. Cells were pre-incubated for 30 min with peptides 1, 5, or 6 (10^−6M) or Kineret (1.0 mg/mL) prior to the experiments to reach equilibrium (n = 4 each treatment). Cells were harvested and incubated for 5 min in RIBOzol (AMRESCO). RNA was extracted according to manufacturer's protocol and RNA concentration and integrity were measured with a NanoDrop 1,000 spectrophotometer. A total of 500 ng RNA was used to synthetize cDNA using iScript Reverse Transcription SuperMix (Bio-Rad, Hercules, CA). Quantitative gene expression analysis was performed on Stratagene MXPro3000 (Stratagene) with SYBR Green Master Mix (Bio-Rad). Gene expression levels were normalized to 18S universal primer (Ambion Life Technology, Burlington ON, Canada). Genes analyzed include IL1β, IL6, and PTGHS2 [Prostaglandin H synthetase 2 or cyclooxygenase-2 (COX-2)]. Data are representative of 3 experiments (each with n = 4 per treatment group).
Figure 8 The effects of peptides 1, 5, and 6 on the expression of pro-inflammatory genes. HEK-Blue cells were pre-treated with peptides 1, 5, and 6 as above and stimulated with IL-1β overnight. qPCR was performed on cell lysates using 18S rRNA as internal control. Graphs are sorted in columns by gene of interest (COX-2, IL-1β, or IL-6) and rows by peptide configuration [(3R) or (3S)]. Results are representative of an average of 3 independent experiments (each with n = 4 per treatment group) and are expressed as a fold-change of the non-stimulated control: ^*p < 0.05, ^**p < 0.01, ^***p < 0.001, ^****p < 0.0001 compared to group treated only with IL-1β. Treatment groups that are not labeled with asterisks are statistically non-significant compared to group treated only with IL-1β.

ROCK2 = assay: IL-1β-induced ROCK2 phosphorylation, Western blot in RAW Blue cells; assay type: cell-based; set-up: key to Western Blot ROCK2 (heatmap grade of inhibition): 0: No effect; No effect 01234 Maximum inhibition/efficacy; No effect 01234 Maximum inhibition/efficacy; No effect 01234 Maximum inhibition/efficacy; 4: Maximum inhibition/efficacy; conditions: for Western Blot ROCK2 (heatmap grade of inhibition): RAW Blue cells, peptide 10^-6 M or Kineret 1.0 mg/mL 30 min, then IL-1β 100 ng/mL 15 min
Protocol: (§1) RAW Blue cells (Invivogen) were grown under standard conditions (37°C, 5% CO2) and maintained under passage number 15. Cells were equilibrated with 1, 5, or 6 (10^−6M) or Kineret (1.0 mg/mL) for 30 min, after which time they were exposed to IL-1β (100 ng/mL) for 15 min. Cells were harvested and lysed on ice for 30 min using a radioimmunoprecipitation assay buffer (Cell Signaling) supplemented with 1 mM phenylmethylsulfonyl fluoride (PMSF) and cOmplete™ EDTA-free protease inhibitor cocktail (Roche, Mannheim, Germany, prepared according to the manufacturer's instructions). Protein concentrations were determined using a Bradford protein assay (Bio-Rad) on 96-well plates with a microplate reader (EnVision Multilabel reader) measuring OD at […]. Bovine serum albumin serial dilutions were used to generate a standard curve. Lysates were then mixed with 4X reducing sample buffer (Bio-Rad).
(§2) Lysates were loaded (30 μg protein per well) in a 5% acrylamide stacking gel, and samples were electrophoresed in a 12% acrylamide resolving gel for 1.5 h at 120 V, followed by a 1 h transfer onto polyvinylidene difluoride (PDVF) membranes at 100 V. Membranes were blocked and incubated with 1:1,000 dilution of primary antibody and 1:20,000 dilution of secondary antibodies according to the manufacturer's instructions. Antibodies used were for phospho-p38 MAPK (Cell Signaling, #9211), p38 MAPK (Cell Signaling, #9212), SAPK/JNK (Cell Signaling, #9252), phospho-SAPK/JNK (Cell Signaling, #9251), ROCK2 (Thermo Fisher Scientific PA5-21131), phospho-ROCK2 (Thermo Fisher Scientific PA5-34895), and goat anti-rabbit conjugated to horseradish peroxidase (Abcam, ab6721). Membranes were imaged using an Amersham Imager 600 (GE Healthcare) using Clarity Western ECL Substrate (Bio-Rad). The intensity of protein bands was quantified using ImageJ and standardized using total (phosphorylated + non-phosphorylated) protein content. Data are representative of three independent experiments.
(§3) Figure 7 The effects of peptides 1, 5, and 6 on IL-1β-induced phosphorylation of JNK, ROCK2, and p38. Graphical representations of band density analysis of Western Blots, sorted into columns based on protein of interest (JNK, ROCK2, or p38) and rows by peptide configuration [(3R-) or (3S)]. RAW-blue cells were pretreated with peptides 1, 5, 6, Kineret, or vehicle for 30 min and then stimulated with IL-1β for 15 min. Images of representative Western Blots can be found in the Supplementary Figure 1. Results shown are the average of 3 independent experiments: ^*p < 0.05, ^**p < 0.01, ^***p < 0.001, ^****p < 0.0001 compared to group treated only with IL-1β. Treatment groups that are not labeled with asterisks are statistically non-significant compared to group treated only with IL-1β.

p38 MAPK = assay: IL-1β-induced p38 MAPK phosphorylation, Western blot in RAW Blue cells; assay type: cell-based; set-up: key to Western Blot p38 (heatmap grade of inhibition): 0: No effect; No effect 01234 Maximum inhibition/efficacy; No effect 01234 Maximum inhibition/efficacy; No effect 01234 Maximum inhibition/efficacy; 4: Maximum inhibition/efficacy; conditions: for Western Blot p38 (heatmap grade of inhibition): RAW Blue cells, peptide 10^-6 M or Kineret 1.0 mg/mL 30 min, then IL-1β 100 ng/mL 15 min; for Inhibition of IL-1β-induced p38 phosphorylation: RAW-blue cells, 10^-6 M, 30 min, then IL-1β 15 min
Protocol: as §1, §2, §3

Row | Substance | qPCR COX2 (heatmap grade of inhibition) (COX2) | Western Blot ROCK2 (heatmap grade of inhibition) (ROCK2) | Western Blot p38 (heatmap grade of inhibition) (p38 MAPK) | Inhibition of IL-1β-induced p38 phosphorylation (p38 MAPK) | Suppression of COX2 transcription (COX2) | Inhibition of IL-1β-induced ROCK2 phosphorylation (ROCK2; RAW-blue cells, 10^-6 M, 30 min, then IL-1β 15 min)
1 | H-D-Arg-D-Tyr-(3R,4R)-Hgl-(S)-Val-D-Glu-D-Leu-D-Ala-NH2 [[(3R,4R)-Hgl^3-(S)-Val^4]-1] | 4 | 4 | 3 | – | – | –
2 | H-D-Arg-D-Tyr-(3R,4R)-Hgl-D-Val-D-Glu-D-Leu-D-Ala-NH2 [[(3R,4R)-Hgl^3]-1] | 4 | 4 | 0 | inactive | – | –
3 | H-D-Arg-D-Tyr-(3R,4S)-Hgl-(S)-Val-D-Glu-D-Leu-D-Ala-NH2 [[(3R,4S)-Hgl^3-(S)-Val^4]-1] | 4 | 2 | 2 | – | – | –
4 | H-D-Arg-D-Tyr-(3R,4S)-Hgl-D-Val-D-Glu-D-Leu-D-Ala-NH2 [[(3R,4S)-Hgl^3]-1] | 4 | 4 | 4 | inhibited most effectively | – | –
5 | H-D-Arg-D-Tyr-(3S,4R)-Hgl-D-Val-D-Glu-D-Leu-D-Ala-NH2 [[(3S,4R)-Hgl^3]-1] | 4 | 3 | 3 | – | – | –
6 | H-D-Arg-D-Tyr-(R)-Agl-(S)-Val-D-Glu-D-Leu-D-Ala-NH2 [[(3R)-Agl^3-(S)-Val^4]-1] | 1 | 2 | 4 | inhibited most effectively | ability to suppress the transcription of all three genes was lost | –
7 | H-D-Arg-D-Tyr-(R)-Agl-D-Val-D-Glu-D-Leu-D-Ala-NH2 [[(3R)-Agl^3]-1] | 3 | 0 | 0 | inactive | – | –
8 | H-D-Arg-D-Tyr-(S)-Agl-(S)-Val-D-Glu-D-Leu-D-Ala-NH2 [[(3S)-Agl^3-(S)-Val^4]-1] | 1 | 3 | 2 | – | ability to suppress the transcription of all three genes was lost | –
9 | H-D-Arg-D-Tyr-(S)-Agl-D-Val-D-Glu-D-Leu-D-Ala-NH2 [[(3S)-Agl^3]-1] | 4 | 0 | 0 | inactive | – | –
10 | H-D-Arg-D-Tyr-D-Thr-D-Val-D-Glu-D-Leu-D-Ala-NH2 [Peptide 1] | 4 | 4 | 4 | inhibited the effects of all three kinases | strong suppression of transcription of all three genes | inhibited the effects of all three kinases
11 | Kineret: FDA-approved recombinant IL-1 receptor antagonist | 4 | 4 | 4 | – | – | –
